Among the data in ChEMBL document CHEMBL5291721, “A preclinical secondary pharmacology resource illuminates target-adverse drug reaction associations of marketed drugs” (Nat Commun, 2023) are AC50 values, retold here.

Targets include D(1A) dopamine receptor (Homo sapiens, UniProt P21728); Estrogen receptor beta (Homo sapiens, UniProt Q92731); Substance-P receptor (Homo sapiens, UniProt P25103); D(1B) dopamine receptor (Homo sapiens, UniProt P21918).
The next assay has as its target Histamine H1 receptor (Homo sapiens, UniProt P35367). In kind it is functional, cell-based.
Assay [1] deals with T1, Peroxisome proliferator-activated receptor gamma (Homo sapiens, UniProt P37231).
T1 sequence (P37231 whole entry): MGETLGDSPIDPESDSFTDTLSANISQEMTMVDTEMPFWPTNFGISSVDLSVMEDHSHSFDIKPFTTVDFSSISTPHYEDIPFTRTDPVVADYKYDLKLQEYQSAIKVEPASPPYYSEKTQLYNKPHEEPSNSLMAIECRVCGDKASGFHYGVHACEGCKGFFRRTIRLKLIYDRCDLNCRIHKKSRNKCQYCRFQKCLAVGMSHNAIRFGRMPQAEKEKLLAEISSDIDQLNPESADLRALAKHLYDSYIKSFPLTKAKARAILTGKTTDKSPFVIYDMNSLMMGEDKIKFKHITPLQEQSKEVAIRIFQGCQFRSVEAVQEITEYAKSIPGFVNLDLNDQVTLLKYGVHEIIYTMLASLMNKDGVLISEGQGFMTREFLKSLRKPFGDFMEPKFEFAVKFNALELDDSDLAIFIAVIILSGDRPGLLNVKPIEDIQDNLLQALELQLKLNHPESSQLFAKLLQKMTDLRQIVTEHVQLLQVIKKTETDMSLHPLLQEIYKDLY
In kind it is functional.

Assay [2] concerns the target Voltage-dependent L-type calcium channel subunit alpha-1C (Homo sapiens, UniProt Q13936). In kind it is functional, cell-based.
In assay [3] the target is T2, Alpha-1A adrenergic receptor (Homo sapiens, UniProt P35348).
T2 sequence (P35348 whole entry): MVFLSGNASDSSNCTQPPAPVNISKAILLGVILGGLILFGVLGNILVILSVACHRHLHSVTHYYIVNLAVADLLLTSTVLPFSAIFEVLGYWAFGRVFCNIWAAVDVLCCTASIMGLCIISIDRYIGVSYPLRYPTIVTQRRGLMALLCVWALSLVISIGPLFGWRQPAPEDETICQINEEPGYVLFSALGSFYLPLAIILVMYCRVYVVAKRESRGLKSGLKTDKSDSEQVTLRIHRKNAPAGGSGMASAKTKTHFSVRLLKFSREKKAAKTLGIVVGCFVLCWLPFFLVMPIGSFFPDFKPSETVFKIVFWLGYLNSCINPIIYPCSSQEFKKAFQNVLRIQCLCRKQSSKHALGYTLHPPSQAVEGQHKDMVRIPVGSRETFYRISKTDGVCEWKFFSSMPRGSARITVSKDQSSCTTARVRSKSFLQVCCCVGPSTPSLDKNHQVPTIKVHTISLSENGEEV

In another assay the target is Cannabinoid receptor 1 (Homo sapiens, UniProt P21554). In kind it is functional.
Assay [4] concerns the target Hydroxycarboxylic acid receptor 2 (Homo sapiens, UniProt Q8TDS4).
Assay [5] deals with Rod cGMP-specific 3',5'-cyclic phosphodiesterase subunit alpha (Homo sapiens, UniProt P16499). In kind it is functional.
In assay [6] the target is 5-hydroxytryptamine receptor 5A (Homo sapiens, UniProt P47898).
The target of assay [7] is T3, Muscarinic acetylcholine receptor M4 (Homo sapiens, UniProt P08173).
T3 sequence (P08173 whole entry): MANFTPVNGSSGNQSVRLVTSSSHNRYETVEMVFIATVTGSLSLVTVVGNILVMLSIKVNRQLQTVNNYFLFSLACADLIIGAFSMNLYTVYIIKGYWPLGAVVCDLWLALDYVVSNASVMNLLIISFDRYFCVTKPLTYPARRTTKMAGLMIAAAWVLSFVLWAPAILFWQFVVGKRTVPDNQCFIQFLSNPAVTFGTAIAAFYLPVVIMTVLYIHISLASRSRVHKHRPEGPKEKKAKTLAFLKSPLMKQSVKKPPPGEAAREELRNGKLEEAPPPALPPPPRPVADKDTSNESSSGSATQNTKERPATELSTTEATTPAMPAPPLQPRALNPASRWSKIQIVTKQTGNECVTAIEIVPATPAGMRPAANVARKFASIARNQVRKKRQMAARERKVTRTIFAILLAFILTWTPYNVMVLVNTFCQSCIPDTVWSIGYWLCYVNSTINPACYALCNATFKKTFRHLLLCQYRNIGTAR

Assay [8] addresses T4, Muscarinic acetylcholine receptor M5 (Homo sapiens, UniProt P08912).
T4 sequence (P08912 whole entry): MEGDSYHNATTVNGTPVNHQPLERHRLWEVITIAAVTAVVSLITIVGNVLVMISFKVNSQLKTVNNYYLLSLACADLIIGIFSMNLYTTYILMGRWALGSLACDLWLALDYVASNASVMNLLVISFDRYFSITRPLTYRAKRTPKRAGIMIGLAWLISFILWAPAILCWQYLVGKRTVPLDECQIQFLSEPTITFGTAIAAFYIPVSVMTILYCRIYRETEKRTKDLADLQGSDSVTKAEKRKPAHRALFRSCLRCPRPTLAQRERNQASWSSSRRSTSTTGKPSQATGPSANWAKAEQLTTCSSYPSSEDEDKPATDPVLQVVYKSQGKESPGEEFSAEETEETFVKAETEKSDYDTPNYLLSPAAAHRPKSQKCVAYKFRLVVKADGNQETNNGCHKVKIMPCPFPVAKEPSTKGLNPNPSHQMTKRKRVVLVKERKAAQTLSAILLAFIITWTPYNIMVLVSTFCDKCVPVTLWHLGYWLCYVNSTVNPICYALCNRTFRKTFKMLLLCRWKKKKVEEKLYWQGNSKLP
Also: assay procedure not described here.

Estrogen receptor beta, sequence (Q92731 whole entry): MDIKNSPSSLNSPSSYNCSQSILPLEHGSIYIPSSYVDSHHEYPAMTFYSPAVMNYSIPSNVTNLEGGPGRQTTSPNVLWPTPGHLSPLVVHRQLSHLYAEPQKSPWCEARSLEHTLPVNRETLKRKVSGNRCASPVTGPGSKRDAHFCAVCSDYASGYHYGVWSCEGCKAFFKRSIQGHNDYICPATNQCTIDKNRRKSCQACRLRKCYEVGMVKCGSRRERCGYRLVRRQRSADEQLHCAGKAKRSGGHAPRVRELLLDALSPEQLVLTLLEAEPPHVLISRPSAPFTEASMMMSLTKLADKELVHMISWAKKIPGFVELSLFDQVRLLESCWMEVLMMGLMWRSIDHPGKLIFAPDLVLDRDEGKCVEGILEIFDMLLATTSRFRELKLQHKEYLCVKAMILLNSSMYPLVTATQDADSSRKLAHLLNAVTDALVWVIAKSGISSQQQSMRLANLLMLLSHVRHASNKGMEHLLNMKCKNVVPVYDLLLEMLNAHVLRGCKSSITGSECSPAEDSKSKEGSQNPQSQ
Hydroxycarboxylic acid receptor 2, sequence (Q8TDS4 whole entry): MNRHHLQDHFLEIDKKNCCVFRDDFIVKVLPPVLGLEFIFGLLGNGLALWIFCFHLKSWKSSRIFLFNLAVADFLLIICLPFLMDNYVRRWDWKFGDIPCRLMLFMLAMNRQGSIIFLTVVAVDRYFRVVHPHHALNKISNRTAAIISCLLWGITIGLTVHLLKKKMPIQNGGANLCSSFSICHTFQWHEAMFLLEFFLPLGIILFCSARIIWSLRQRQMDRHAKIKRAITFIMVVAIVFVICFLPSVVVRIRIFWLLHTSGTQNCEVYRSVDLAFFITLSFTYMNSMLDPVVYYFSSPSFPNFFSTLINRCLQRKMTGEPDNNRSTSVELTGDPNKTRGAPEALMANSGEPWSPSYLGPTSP
Voltage-dependent L-type calcium channel subunit alpha-1C, sequence (Q13936 whole entry): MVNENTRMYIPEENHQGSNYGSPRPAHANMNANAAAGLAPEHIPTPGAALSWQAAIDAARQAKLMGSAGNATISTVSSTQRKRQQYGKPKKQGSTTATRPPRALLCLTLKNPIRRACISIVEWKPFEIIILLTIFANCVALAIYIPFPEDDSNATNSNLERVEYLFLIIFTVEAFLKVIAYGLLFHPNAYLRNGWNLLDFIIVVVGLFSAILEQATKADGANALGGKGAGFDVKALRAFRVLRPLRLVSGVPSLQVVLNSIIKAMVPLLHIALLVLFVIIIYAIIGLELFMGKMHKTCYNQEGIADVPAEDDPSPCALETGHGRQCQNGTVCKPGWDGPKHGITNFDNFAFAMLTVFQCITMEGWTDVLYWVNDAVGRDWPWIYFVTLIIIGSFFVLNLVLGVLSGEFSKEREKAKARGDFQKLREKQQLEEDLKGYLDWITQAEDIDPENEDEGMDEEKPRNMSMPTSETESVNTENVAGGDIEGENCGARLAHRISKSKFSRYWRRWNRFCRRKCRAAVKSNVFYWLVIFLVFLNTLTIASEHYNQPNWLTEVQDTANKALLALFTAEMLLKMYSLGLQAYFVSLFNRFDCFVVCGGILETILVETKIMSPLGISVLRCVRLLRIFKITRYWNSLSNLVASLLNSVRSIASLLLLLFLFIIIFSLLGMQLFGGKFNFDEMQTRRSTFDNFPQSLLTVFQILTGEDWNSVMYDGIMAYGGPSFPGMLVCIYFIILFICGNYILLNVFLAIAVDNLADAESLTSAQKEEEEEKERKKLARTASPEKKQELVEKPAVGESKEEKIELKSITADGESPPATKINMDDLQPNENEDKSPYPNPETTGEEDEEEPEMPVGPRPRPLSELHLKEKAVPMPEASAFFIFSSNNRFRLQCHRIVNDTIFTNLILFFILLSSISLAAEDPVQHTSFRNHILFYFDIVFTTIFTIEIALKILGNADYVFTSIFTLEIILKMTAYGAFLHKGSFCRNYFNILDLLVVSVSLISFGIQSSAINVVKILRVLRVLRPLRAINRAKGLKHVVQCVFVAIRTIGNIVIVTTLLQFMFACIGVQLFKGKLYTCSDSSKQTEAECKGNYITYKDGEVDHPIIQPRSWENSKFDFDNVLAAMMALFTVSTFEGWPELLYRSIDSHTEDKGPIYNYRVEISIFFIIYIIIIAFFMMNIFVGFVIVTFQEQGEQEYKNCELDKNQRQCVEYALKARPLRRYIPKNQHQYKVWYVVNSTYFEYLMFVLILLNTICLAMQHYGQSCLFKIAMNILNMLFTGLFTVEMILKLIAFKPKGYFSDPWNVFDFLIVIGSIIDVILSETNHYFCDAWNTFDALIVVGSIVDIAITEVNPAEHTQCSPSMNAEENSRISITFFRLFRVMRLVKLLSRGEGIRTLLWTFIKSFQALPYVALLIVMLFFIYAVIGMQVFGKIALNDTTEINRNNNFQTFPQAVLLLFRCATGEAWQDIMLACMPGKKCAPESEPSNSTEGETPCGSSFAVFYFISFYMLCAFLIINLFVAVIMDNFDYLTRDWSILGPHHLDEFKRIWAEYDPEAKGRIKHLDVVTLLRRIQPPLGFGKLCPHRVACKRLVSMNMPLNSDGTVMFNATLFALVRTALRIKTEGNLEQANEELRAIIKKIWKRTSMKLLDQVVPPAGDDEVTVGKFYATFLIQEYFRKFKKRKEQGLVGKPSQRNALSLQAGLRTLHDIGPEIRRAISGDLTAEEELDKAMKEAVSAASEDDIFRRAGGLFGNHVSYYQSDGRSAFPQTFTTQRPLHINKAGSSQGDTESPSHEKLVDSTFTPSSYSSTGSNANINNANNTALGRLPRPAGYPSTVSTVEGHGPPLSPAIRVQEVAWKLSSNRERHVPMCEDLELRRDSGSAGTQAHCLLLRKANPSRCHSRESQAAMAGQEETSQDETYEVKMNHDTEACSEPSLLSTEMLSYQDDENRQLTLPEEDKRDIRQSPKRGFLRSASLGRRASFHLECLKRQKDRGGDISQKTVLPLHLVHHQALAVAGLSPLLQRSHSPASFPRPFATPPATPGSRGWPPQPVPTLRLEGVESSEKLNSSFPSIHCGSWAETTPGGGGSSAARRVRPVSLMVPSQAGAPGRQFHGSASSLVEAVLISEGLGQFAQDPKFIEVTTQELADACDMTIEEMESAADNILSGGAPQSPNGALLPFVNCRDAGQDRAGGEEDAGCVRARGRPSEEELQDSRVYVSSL
D(1A) dopamine receptor, sequence (P21728 whole entry): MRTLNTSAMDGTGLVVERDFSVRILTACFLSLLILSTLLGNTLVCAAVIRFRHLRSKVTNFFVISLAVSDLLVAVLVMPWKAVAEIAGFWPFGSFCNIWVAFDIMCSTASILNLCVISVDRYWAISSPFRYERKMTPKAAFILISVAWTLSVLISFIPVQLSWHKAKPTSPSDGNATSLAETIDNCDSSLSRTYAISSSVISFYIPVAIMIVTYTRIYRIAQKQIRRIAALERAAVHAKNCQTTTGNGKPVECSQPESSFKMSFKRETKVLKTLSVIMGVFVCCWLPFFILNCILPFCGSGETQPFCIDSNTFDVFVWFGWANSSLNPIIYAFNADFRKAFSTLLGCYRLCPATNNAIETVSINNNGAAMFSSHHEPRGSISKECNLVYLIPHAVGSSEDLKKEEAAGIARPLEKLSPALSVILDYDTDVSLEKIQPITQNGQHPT
Rod cGMP-specific 3',5'-cyclic phosphodiesterase subunit alpha, sequence (P16499 whole entry): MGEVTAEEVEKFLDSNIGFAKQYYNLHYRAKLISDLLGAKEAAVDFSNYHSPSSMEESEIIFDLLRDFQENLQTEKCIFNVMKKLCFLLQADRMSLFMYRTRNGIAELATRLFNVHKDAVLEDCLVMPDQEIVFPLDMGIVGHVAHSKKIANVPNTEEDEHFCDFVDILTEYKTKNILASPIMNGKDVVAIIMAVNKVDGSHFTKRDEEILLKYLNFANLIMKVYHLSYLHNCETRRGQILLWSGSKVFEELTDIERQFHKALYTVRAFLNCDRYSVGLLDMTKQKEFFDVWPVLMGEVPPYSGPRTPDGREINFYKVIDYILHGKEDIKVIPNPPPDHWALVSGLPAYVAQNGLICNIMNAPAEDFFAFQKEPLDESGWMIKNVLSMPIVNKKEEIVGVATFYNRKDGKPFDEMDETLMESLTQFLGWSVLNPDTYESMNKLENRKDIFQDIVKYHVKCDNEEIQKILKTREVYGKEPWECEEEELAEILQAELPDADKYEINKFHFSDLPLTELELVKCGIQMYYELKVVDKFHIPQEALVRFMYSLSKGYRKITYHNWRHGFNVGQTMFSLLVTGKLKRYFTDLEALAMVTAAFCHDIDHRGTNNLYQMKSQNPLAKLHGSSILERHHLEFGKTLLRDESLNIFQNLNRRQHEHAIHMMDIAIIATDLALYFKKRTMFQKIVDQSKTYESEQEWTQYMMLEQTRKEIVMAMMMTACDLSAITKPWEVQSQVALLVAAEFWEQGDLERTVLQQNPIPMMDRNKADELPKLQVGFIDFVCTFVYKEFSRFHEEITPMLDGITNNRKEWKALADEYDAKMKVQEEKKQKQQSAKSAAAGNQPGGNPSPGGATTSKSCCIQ
D(1B) dopamine receptor, sequence (P21918 whole entry): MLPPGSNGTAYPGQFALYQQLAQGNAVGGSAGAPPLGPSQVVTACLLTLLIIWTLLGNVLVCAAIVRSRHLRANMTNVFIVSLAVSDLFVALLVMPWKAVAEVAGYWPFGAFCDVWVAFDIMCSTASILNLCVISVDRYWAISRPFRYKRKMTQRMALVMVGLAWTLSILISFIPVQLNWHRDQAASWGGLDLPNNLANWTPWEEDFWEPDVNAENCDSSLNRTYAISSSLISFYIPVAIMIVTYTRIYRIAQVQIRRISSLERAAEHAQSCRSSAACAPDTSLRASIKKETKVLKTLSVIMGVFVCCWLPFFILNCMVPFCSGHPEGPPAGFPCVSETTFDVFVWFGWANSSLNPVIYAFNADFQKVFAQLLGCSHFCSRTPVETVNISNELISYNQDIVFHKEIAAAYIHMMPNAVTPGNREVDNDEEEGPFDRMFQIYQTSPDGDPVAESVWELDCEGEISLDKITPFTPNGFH

Broadly, the AC50 is the concentration giving half of the maximal activity seen. Turning to `CCCCC(C)(O)C/C=C/[C@H]1[C@H](O)CC(=O)[C@@H]1CCCCCCC(=O)OC` (some centres undefined) [MISOPROSTOL], the AC50 on Histamine H1 receptor was over 30 µM.

`NC(CO)C(=O)NNCc1ccc(O)c(O)c1O` (centres undefined) [BENSERAZIDE]: the AC50 at Histamine H1 receptor is over 30 µM; on D(1A) dopamine receptor it was over 10 µM.

`COc1ccc(C(=O)N2CCN(c3ccc4c(c3)CCC(=O)N4)CC2)cc1OC` [VESNARINONE]: the AC50 on Histamine H1 receptor was over 30 µM.

Regarding `CCCOc1ccc(C(=O)OCCN(CC)CC)cc1N` [PROPARACAINE], in assay [1], the AC50 is over 30 µM.

As to `Nc1nc2ccc(OC(F)(F)F)cc2s1` [RILUZOLE], the AC50 was over 50 µM in assay [2] and over 30 µM in assay [1].

`O=C1NCCN1CCN1CCC(c2cn(-c3ccc(F)cc3)c3ccc(Cl)cc23)CC1` [SERTINDOLE]: in assay [2], the half-maximal activity concentration (AC50) is over 50 µM.

As for `[H]/N=C(/N)c1ccc(NCc2nc3cc(C(=O)N(CCC(=O)O)c4ccccn4)ccc3n2C)cc1` [DABIGATRAN], the AC50 in assay [1] is over 30 µM.

Consider `O=C1CN=C(c2ccccc2)c2cc(Cl)ccc2N1CC(F)(F)F` [HALAZEPAM], for which the AC50 (at Histamine H1 receptor; in assay [1]) was over 30 µM in each case.

Turning to `C=C1CC[C@@]2(O)[C@H]3Cc4ccc(O)c5c4[C@@]2(CCN3CC2CC2)[C@H]1O5`, the AC50 at Histamine H1 receptor was over 30 µM.

In turn, `Nc1ncnc2c1ncn2[C@@H]1O[C@H](COP(=O)(O)O)[C@@H](O)[C@H]1O` [ADENOSINE PHOSPHATE] displayed an AC50 at Histamine H1 receptor of over 30 µM.

In assay [1], `CCCCCOC(=O)Nc1nc(=O)n([C@@H]2O[C@H](C)[C@@H](O)[C@H]2O)cc1F` [CAPECITABINE] registered an AC50 of over 30 µM.

As to `Cc1cccc(C)c1NC(=O)C1CCCCN1C` (centres undefined) [MEPIVACAINE], the AC50 in assay [1] is over 30 µM.

Take `CC(Cc1ccccc1)NCCC(c1ccccc1)c1ccccc1` (centres undefined) [PRENYLAMINE]: the concentration at half-maximal activity (AC50) in assay [2] came out at 47 µM.

With `CN1CCN(C(=O)OC2c3nccnc3C(=O)N2c2ccc(Cl)cn2)CC1` (centres undefined) [ZOPICLONE], the AC50 was over 30 µM on Estrogen receptor beta; over 10 µM in assay [3]; over 10 µM on D(1A) dopamine receptor; over 30 µM in [1]; over 10 µM at Cannabinoid receptor 1.

With `COc1ccc2cccc(CCNC(C)=O)c2c1` [AGOMELATINE], the AC50 was over 30 µM at Estrogen receptor beta; over 10 µM at Substance-P receptor; over 10 µM in [3]; over 10 µM in assay [4]; over 10 µM at D(1A) dopamine receptor.

As for `CN(C)C(=O)OC1N=C(c2ccccc2)c2cc(Cl)ccc2N(C)C1=O` (centres undefined) [CAMAZEPAM], the AC50 at Estrogen receptor beta is over 30 µM; on Substance-P receptor, over 10 µM; in [3], over 10 µM; in assay [5], over 10 µM; in assay [6] it was over 10 µM; at D(1A) dopamine receptor, over 10 µM. For the same compound, the AC50 (in [7]; on D(1B) dopamine receptor; in assay [8]; at Cannabinoid receptor 1) was over 10 µM in each case.

The compound `CC/C=C\C/C=C\C/C=C\CCCCCCCC(=O)O` [LINOLENIC ACID] yielded an AC50 on Histamine H1 receptor of over 30 µM.

With `Cc1cc(-c2ccccc2)nnc1NCCN1CCOCC1` [MINAPRINE], the AC50 at Estrogen receptor beta was over 30 µM; at Substance-P receptor it was over 10 µM; in assay [3] it was over 10 µM; in assay [4], over 10 µM; at D(1A) dopamine receptor it was over 10 µM.

Regarding `Cc1c(C(=O)Nc2ccc(N3C[C@@H](C)O[C@@H](C)C3)nc2)cccc1-c1ccc(OC(F)(F)F)cc1` [SONIDEGIB], the AC50 was over 30 µM on Estrogen receptor beta, over 10 µM on Substance-P receptor, over 10 µM in assay [3] and over 10 µM at D(1A) dopamine receptor.

Regarding `NC(=O)C[S+]([O-])C(c1ccccc1)c1ccccc1` (centres undefined) [MODAFINIL], the AC50 was over 30 µM on Estrogen receptor beta; over 10 µM at Substance-P receptor; over 10 µM in assay [3]; over 10 µM in assay [5]; over 10 µM in [6]; over 10 µM on D(1A) dopamine receptor. Moreover, the concentration at half-maximal activity (AC50) (in [7]; on D(1B) dopamine receptor; in [8]; at Cannabinoid receptor 1) was over 10 µM each time.

Regarding `CCCCCN(C)CCC(O)(P(=O)(O)O)P(=O)(O)O` [IBANDRONIC ACID], the AC50 at Estrogen receptor beta was over 30 µM; on Substance-P receptor, over 10 µM; in [3] it was over 10 µM; at D(1A) dopamine receptor it was over 10 µM; on Cannabinoid receptor 1, over 10 µM.

On to `CCCCOc1cc(C(=O)NCCN(CC)CC)c2ccccc2n1` [DIBUCAINE], for which the AC50 in assay [2] was determined as 22 µM.

At Substance-P receptor, `CCNC(C)Cc1cccc(C(F)(F)F)c1` (centres undefined) [FENFLURAMINE] came in with an AC50 of over 10 µM.

For `Cc1ccc(-c2nc3ccc(C)cn3c2CC(=O)N(C)C)cc1` [ZOLPIDEM], the AC50 (at Substance-P receptor; in [3]; in [5]; in assay [6]; on D(1A) dopamine receptor; in [7]) was over 10 µM throughout. Moreover, the AC50 (at D(1B) dopamine receptor; in [8]; at Cannabinoid receptor 1) was over 10 µM in each case.

On to `CCCCCCC(C)(C)c1cc(O)c2c(c1)OC(C)(C)C1CCC(=O)CC21` (centres undefined) [NABILONE], for which the AC50 (on Histamine H1 receptor; in [1]) was over 30 µM in each case.

Compound `CN1CCc2cccc3c2[C@H]1Cc1ccc(O)c(O)c1-3` [APOMORPHINE] registered an AC50 on Estrogen receptor beta of over 30 µM.

The compound `CC(C)(Oc1ccc(C2CC2(Cl)Cl)cc1)C(=O)O` (centres undefined) [CIPROFIBRATE] registered an AC50 in [1] of over 30 µM.

For the compound `C[C@H]1C[C@@H]2[C@H]([C@@H](O)C[C@@]3(C)[C@H]2CC[C@]3(O)C(=O)COC(=O)CCC(=O)O)[C@@]2(C)C=CC(=O)C=C12` [METHYLPREDNISOLONE HEMISUCCINATE], the AC50 (on Histamine H1 receptor; in assay [1]) was over 30 µM in each case.

Consider `O=C(O)CCCc1ccccc1` [PHENYLBUTANOIC ACID], for which the AC50 on Estrogen receptor beta is over 30 µM; at Substance-P receptor, over 10 µM; in assay [3], over 10 µM; in [7], over 10 µM; in assay [8], over 10 µM; at Cannabinoid receptor 1 it was over 10 µM.

In the case of `CN[C@@H](C)[C@H](O)c1ccccc1` [EPHEDRINE], the AC50 on Estrogen receptor beta is over 30 µM; on Substance-P receptor it was over 10 µM; in assay [3], over 10 µM; in assay [4], over 10 µM; at D(1A) dopamine receptor, over 10 µM.
